Data taken from ChEMBL document CHEMBL5120780, “Novel indazole skeleton derivatives containing 1,2,3-triazole as potential anti-prostate cancer drugs” (Bioorg Med Chem Lett, 2022).

What was measured:
PC-3 [1] = assay: Antiproliferative activity against human PC-3 cells assessed as inhibition of cell growth incubated for 72 hrs by MTT assay; assay type: functional, cell-based; conditions: PC-3, 72 h
MCF7 = assay: Antiproliferative activity against human MCF7 cells assessed as inhibition of cell growth incubated for 72 hrs by MTT assay; assay type: functional, cell-based; conditions: MCF7, 72 h
HepG2 = assay: Antiproliferative activity against human HepG2 cells assessed as inhibition of cell growth incubated for 72 hrs by MTT assay; assay type: functional, cell-based; conditions: HepG2, 72 h
MGC-803 = assay: Antiproliferative activity against human MGC-803 cells assessed as inhibition of cell growth incubated for 72 hrs by MTT assay; assay type: functional, cell-based; conditions: MGC-803, 72 h
PC-3 [2] = assay: Inhibition of colony formation in human PC-3 cells incubated for 7 days by crystal violet staining based analysis; assay type: functional, cell-based; conditions: dose 2-8 µM, time 7.0 day, DDE = dose-dependent effect
PC-3 [3] = assay: Induction of cell cycle arrest in human PC-3 cells assessed as accumulation of cells in G2/M phase at 8 uM incubated for 24 hrs by RNase/PI staining based flow cytometry analysis (reference value: 22.17%); assay type: functional
[4] = Cytotoxicity against human WPMY-1 cells assessed as inhibition of cell growth incubated for 72 hrs by MTT assay; assay type: toxicity, cell-based
[5] = Selectivity ratio of IC50 for cytotoxicity against human WPMY-1 cells to IC50 for antiproliferative activity against human PC-3 cells; assay type: toxicity, cell-based; conditions: WPMY-1 cells and PC-3 cells, read-out: Ratio IC50
[6] = Toxicity in wild type KM mouse assessed as animal survival at 2 g/Kg, IG measured for 2 weeks; conditions: in vivo, po, 2000 mg/kg, 336 h
[7] = Toxicity in wild type KM mouse assessed as behavioral abnormalities at 2 g/Kg, IG measured for 2 weeks; conditions: in vivo, po, 2000 mg/kg, 336 h
[8] = Toxicity in wild type KM mouse assessed as change in heart morphology at 2 g/Kg, IG measured for 2 weeks by H and E staining based microscopic analysis; assay type: tissue-based; conditions: in vivo, po, 2000 mg/kg, 336 h
[9] = Toxicity in wild type KM mouse assessed as change in liver morphology at 2 g/Kg, IG measured for 2 weeks by H and E staining based microscopic analysis; assay type: tissue-based; conditions: in vivo, po, 2000 mg/kg, 336 h
[10] = Toxicity in wild type KM mouse assessed as change in spleen morphology at 2 g/Kg, IG measured for 2 weeks by H and E staining based microscopic analysis; conditions: in vivo, po, 2000 mg/kg, 336 h
[11] = Toxicity in wild type KM mouse assessed as change in lung morphology at 2 g/Kg, IG measured for 2 weeks by H and E staining based microscopic analysis; conditions: in vivo, po, 2000 mg/kg, 336 h
[12] = Toxicity in wild type KM mouse assessed as change in kidney morphology at 2 g/Kg, IG measured for 2 weeks by H and E staining based microscopic analysis; conditions: in vivo, po, 2000 mg/kg, 336 h
[13] = Toxicity in wild type KM mouse assessed as change in prostate morphology at 2 g/Kg, IG measured for 2 weeks by H and E staining based microscopic analysis; conditions: in vivo, po, 2000 mg/kg, 336 h

CC(C)n1ncc2c(C(=O)NCc3cn(Cc4ccc(C(C)(C)C)cc4)nn3)cccc21
IC50 (PC-3 [1]): 8.89 µM
IC50 (MCF7): > 40 µM
IC50 (HepG2): > 40 µM
IC50 (MGC-803): > 40 µM

CC(C)n1ncc2c(C(=O)NCc3cn(-c4ccccc4F)nn3)cccc21
IC50 (PC-3 [1]): > 40 µM
IC50 (MCF7): > 40 µM
IC50 (HepG2): > 40 µM
IC50 (MGC-803): > 40 µM

CC(C)n1ncc2c(C(=O)NCc3cn(-c4ccc([N+](=O)[O-])cc4)nn3)cccc21
IC50 (PC-3 [1]): > 40 µM
IC50 (MCF7): > 40 µM
IC50 (HepG2): > 40 µM
IC50 (MGC-803): > 40 µM

CC(C)n1ncc2c(C(=O)NCc3cn(Cc4ccc(C(F)(F)F)cc4)nn3)cccc21
IC50 (PC-3 [1]): 23.9 µM
IC50 (MCF7): > 40 µM
IC50 (HepG2): > 40 µM
IC50 (MGC-803): > 40 µM

CCc1ccc(-n2cc(CNC(=O)c3cccc4c3cnn4C(C)C)nn2)cc1
IC50 (PC-3 [1]): 26.6 µM
IC50 (MCF7): > 40 µM
IC50 (HepG2): > 40 µM
IC50 (MGC-803): > 40 µM

CC(C)n1ncc2c(C(=O)NCc3cn(Cc4ccccc4)nn3)cccc21
IC50 (PC-3 [1]): 4.42 µM
IC50 (MCF7): 9.17 µM
IC50 (HepG2): 13.7 µM
IC50 (MGC-803): 14.3 µM
inhibition (PC-3 [2]): Dde
Activity (PC-3 [3]): 72.25%
IC50 at 72 h [4]: 20.3 µM
selectivity ratio [5]: 4.42
Activity [6]: Non-Toxic
Activity [7]: Non-Toxic
Activity [8]: Non-Toxic
Activity [9]: Non-Toxic
Activity [10]: Non-Toxic
Activity [11]: Non-Toxic
Activity [12]: Non-Toxic
Activity [13]: Non-Toxic

CC(C)n1ncc2c(C(=O)NCc3cn(-c4ccccc4)nn3)cccc21
IC50 (PC-3 [1]): 25.9 µM
IC50 (MCF7): > 40 µM
IC50 (HepG2): > 40 µM
IC50 (MGC-803): > 40 µM

COc1ccc(Cn2cc(CNC(=O)c3cccc4c3cnn4C(C)C)nn2)cc1
IC50 (PC-3 [1]): 34 µM
IC50 (MCF7): > 40 µM
IC50 (HepG2): > 40 µM
IC50 (MGC-803): > 40 µM

COc1ccc(-n2cc(CNC(=O)c3cccc4c3cnn4C(C)C)nn2)cc1
IC50 (PC-3 [1]): 34.3 µM
IC50 (MCF7): > 40 µM
IC50 (HepG2): > 40 µM
IC50 (MGC-803): > 40 µM

Cc1ccccc1-n1cc(CNC(=O)c2cccc3c2cnn3C(C)C)nn1
IC50 (PC-3 [1]): 19.2 µM
IC50 (MCF7): > 40 µM
IC50 (HepG2): > 40 µM
IC50 (MGC-803): > 40 µM

CC(C)n1ncc2c(C(=O)NCCN3CCCCC3)cccc21
IC50 (PC-3 [1]): > 40 µM
IC50 (MCF7): > 40 µM
IC50 (HepG2): > 40 µM
IC50 (MGC-803): > 40 µM

Cc1ccc(-n2cc(CNC(=O)c3cccc4c3cnn4C(C)C)nn2)cc1
IC50 (PC-3 [1]): 39 µM
IC50 (MCF7): > 40 µM
IC50 (HepG2): > 40 µM
IC50 (MGC-803): > 40 µM

Cc1cccc(-n2cc(CNC(=O)c3cccc4c3cnn4C(C)C)nn2)c1
IC50 (PC-3 [1]): 32.3 µM
IC50 (MCF7): > 40 µM
IC50 (HepG2): > 40 µM
IC50 (MGC-803): > 40 µM

Cc1ccc(-n2cc(CNC(=O)c3cccc4c3cnn4C(C)C)nn2)cc1C
IC50 (PC-3 [1]): 23.4 µM
IC50 (MCF7): > 40 µM
IC50 (HepG2): > 40 µM
IC50 (MGC-803): > 40 µM

Cc1ccc(-n2cc(CNC(=O)c3cccc4c3cnn4C(C)C)nn2)c(C)c1
IC50 (PC-3 [1]): 10.6 µM
IC50 (MCF7): > 40 µM
IC50 (HepG2): > 40 µM
IC50 (MGC-803): > 40 µM

CC(C)n1ncc2c(C(=O)NCc3cn(-c4ccc(I)cc4)nn3)cccc21
IC50 (PC-3 [1]): > 40 µM
IC50 (MCF7): > 40 µM
IC50 (HepG2): > 40 µM
IC50 (MGC-803): > 40 µM

CC(C)n1ncc2c(C(=O)Nc3cccnc3)cccc21
IC50 (PC-3 [1]): > 40 µM
IC50 (MCF7): > 40 µM
IC50 (HepG2): > 40 µM
IC50 (MGC-803): > 40 µM

CC(C)n1ncc2c(C(=O)NCc3ccccc3)cccc21
IC50 (PC-3 [1]): 15.2 µM
IC50 (MCF7): > 40 µM
IC50 (HepG2): > 40 µM
IC50 (MGC-803): > 40 µM

CC(C)n1ncc2c(C(=O)NCc3cn(-c4cccc(F)c4)nn3)cccc21
IC50 (PC-3 [1]): 36.1 µM
IC50 (MCF7): > 40 µM
IC50 (HepG2): > 40 µM
IC50 (MGC-803): > 40 µM

CC(C)n1ncc2c(C(=O)NCCN(C)C)cccc21
IC50 (PC-3 [1]): > 40 µM
IC50 (MCF7): > 40 µM
IC50 (HepG2): > 40 µM
IC50 (MGC-803): > 40 µM

CC(C)n1ncc2c(C(=O)NCc3cn(Cc4ccc(C#N)cc4)nn3)cccc21
IC50 (PC-3 [1]): 18.2 µM
IC50 (MCF7): > 40 µM
IC50 (HepG2): > 40 µM
IC50 (MGC-803): 39.6 µM

CC(C)n1ncc2c(C(=O)NCCN3CCCC3)cccc21
IC50 (PC-3 [1]): > 40 µM
IC50 (MCF7): > 40 µM
IC50 (HepG2): > 40 µM
IC50 (MGC-803): > 40 µM

O=c1[nH]cc(F)c(=O)[nH]1 [FLUOROURACIL]
IC50 (MCF7): 15.1 µM
IC50 (HepG2): 11.7 µM

CC(C)n1ncc2c(C(=O)Nc3ccccc3)cccc21
IC50 (PC-3 [1]): 11.9 µM
IC50 (MCF7): 19.7 µM
IC50 (HepG2): 23.7 µM
IC50 (MGC-803): 38.5 µM

CC(C)n1ncc2c(C(=O)NCCN3CCN(C)CC3)cccc21
IC50 (PC-3 [1]): > 40 µM
IC50 (MCF7): > 40 µM
IC50 (HepG2): > 40 µM
IC50 (MGC-803): > 40 µM

CC(C)n1ncc2c(C(=O)NCc3cn(-c4ccc(C(F)(F)F)cc4)nn3)cccc21
IC50 (PC-3 [1]): 38.6 µM
IC50 (MCF7): > 40 µM
IC50 (HepG2): > 40 µM
IC50 (MGC-803): > 40 µM

CC(C)n1ncc2c(C(=O)NC3CCCC3)cccc21
IC50 (PC-3 [1]): 19.4 µM
IC50 (MCF7): > 40 µM
IC50 (HepG2): > 40 µM
IC50 (MGC-803): > 40 µM

CC(C)n1ncc2c(C(=O)NCc3cn(-c4ccc(F)cc4)nn3)cccc21
IC50 (PC-3 [1]): > 40 µM
IC50 (MCF7): > 40 µM
IC50 (HepG2): > 40 µM
IC50 (MGC-803): > 40 µM

CNC(=O)c1ccc(N2C(=S)N(c3ccc(C#N)c(C(F)(F)F)c3)C(=O)C2(C)C)cc1F [ENZALUTAMIDE]
IC50 (PC-3 [1]): 24.6 µM
IC50 at 72 h [4]: 61.4 µM
selectivity ratio [5]: 2.49

CC(C)n1ncc2c(C(=O)NCc3cn(-c4cccc(Br)c4)nn3)cccc21
IC50 (PC-3 [1]): 33.7 µM
IC50 (MCF7): > 40 µM
IC50 (HepG2): > 40 µM
IC50 (MGC-803): > 40 µM
